# From ChEMBL document CHEMBL1201862, “PubChem BioAssay data set” (2004)
# Activity calls are given as the source filed them.
# Tests used:
# [1] = test system: Streptococcus sp. 'group A'; assay: Streptococcus pyogenes SK(-)GAS viability under kanamycin – luminescence, BacTiterGlo, confirmation, counter-screen for streptokinase expression inhibitor project, dose response (AID 1900); assay type: functional, organism-based
# Vero = assay: mammalian cell viability reduction – secondary assay, cytotoxicity control for West Nile virus antiviral project, dose response (AID 1650); assay type: functional; conditions: Chlorocebus sabaeus
# Streptokinase A = molecular target: T1, Streptokinase A (Streptococcus pyogenes serotype M1, UniProt P10520); assay: viability-normalized secreted streptokinase activity reduction – plasminogen activation absorbance, OD405, dose response (AID 1914); assay type: functional, Streptococcus pyogenes M1 GAS;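 further: secreted streptokinase activity via plasminogen activation per viability signal from cell pellet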
# T1 sequence (P10520 whole entry): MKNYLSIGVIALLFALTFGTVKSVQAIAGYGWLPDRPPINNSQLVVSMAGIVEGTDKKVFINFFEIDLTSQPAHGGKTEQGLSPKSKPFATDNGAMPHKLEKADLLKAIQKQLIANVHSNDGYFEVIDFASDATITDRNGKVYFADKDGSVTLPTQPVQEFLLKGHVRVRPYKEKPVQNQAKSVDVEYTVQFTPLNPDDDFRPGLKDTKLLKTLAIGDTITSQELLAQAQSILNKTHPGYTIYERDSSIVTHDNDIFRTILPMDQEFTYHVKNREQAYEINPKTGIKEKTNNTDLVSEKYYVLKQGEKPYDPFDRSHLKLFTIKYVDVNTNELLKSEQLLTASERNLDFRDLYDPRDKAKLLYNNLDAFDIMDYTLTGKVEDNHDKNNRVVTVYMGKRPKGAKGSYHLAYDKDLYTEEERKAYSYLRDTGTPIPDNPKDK
# Streptococcus = assay: GAS UMAA2166 growth inhibition – luminescence, BacTiterGlo, counter-screen for streptokinase expression inhibitor project, dose response (AID 1915); assay type: functional, organism-based;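 further: potency for reduction of bacterial viability or growth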
# [2] = molecular target: Glyceraldehyde-3-phosphate dehydrogenase (Homo sapiens, UniProt P04406)
# Glyceraldehyde-3-phosphate dehydrogenase, sequence (P04406 whole entry): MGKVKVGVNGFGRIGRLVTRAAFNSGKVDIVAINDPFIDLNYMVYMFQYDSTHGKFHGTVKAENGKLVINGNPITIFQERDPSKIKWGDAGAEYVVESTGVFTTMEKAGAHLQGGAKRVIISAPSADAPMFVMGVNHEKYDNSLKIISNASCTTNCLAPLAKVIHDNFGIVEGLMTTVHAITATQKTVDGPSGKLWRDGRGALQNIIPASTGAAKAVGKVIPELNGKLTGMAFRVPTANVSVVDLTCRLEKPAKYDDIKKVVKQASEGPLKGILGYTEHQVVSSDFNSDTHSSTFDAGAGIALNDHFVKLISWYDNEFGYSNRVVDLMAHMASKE
# Bcl-2-related protein A1 [3] = molecular target: T2, Bcl-2-related protein A1 (Mus musculus, UniProt Q07440); assay: small-molecule antagonists of Bfl-1/BH3 interaction – biochemical, TR-FRET, mouse Bfl-1, confirmation (AID 621);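 further: TR-FRET binding of GST-Bfl-1 to FITC-labelled Bid peptide via terbium antibody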
# T2 sequence (Q07440 whole entry): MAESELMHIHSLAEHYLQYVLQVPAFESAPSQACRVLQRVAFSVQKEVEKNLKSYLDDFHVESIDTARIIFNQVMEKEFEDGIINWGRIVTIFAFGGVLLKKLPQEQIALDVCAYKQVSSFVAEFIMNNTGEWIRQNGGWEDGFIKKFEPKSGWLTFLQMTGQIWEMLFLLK
# Bcl-2-related protein A1 [4] = molecular target: T2, Bcl-2-related protein A1; assay: Bfl-1 binding inhibitors, SAR follow-up, biochemical, fluorescence polarization (AID 1070)
# [5] = molecular target: T3, Replicative DNA helicase DnaB (Mycobacterium tuberculosis, UniProt P9WMR3); assay: DnaB intein splicing inhibitors, dose response, biochemical, cell-free fluorescence (AID 449749); assay type: functional
# T3 sequence (P9WMR3 whole entry): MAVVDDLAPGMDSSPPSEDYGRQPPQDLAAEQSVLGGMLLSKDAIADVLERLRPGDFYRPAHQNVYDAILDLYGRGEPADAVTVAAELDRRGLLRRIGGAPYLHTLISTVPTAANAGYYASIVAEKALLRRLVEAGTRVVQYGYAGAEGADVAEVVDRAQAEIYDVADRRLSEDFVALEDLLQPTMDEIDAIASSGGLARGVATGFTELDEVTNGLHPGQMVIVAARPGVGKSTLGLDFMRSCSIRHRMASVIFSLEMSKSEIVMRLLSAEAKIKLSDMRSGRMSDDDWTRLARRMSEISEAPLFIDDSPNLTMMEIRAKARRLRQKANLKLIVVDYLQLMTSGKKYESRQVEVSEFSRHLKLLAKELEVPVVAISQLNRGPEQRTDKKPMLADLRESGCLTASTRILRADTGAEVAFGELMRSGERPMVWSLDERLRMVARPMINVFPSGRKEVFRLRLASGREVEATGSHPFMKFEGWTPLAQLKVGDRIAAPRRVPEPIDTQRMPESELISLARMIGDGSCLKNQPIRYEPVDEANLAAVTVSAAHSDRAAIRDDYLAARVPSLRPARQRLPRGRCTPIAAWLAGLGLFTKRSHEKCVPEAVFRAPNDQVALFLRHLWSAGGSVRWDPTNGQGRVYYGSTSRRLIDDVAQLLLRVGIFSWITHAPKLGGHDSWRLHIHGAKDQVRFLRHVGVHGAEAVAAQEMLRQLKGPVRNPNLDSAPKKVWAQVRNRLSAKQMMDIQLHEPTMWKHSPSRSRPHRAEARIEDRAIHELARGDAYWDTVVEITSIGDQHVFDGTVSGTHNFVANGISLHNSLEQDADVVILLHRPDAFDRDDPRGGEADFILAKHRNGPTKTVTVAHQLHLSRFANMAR
# Protein RecA = molecular target: T4, Protein RecA (Mycobacterium tuberculosis, UniProt P9WHJ3); assay: Fluorescence Cell-Free Homogeneous Dose Retest to Identify Inhibitors of RecA-Intein Splicing Activity. [Related pubchem assays (depositor defined):AID2097, AID2223, AID489010, AID492950]; assay type: functional
# T4 sequence (P9WHJ3 whole entry): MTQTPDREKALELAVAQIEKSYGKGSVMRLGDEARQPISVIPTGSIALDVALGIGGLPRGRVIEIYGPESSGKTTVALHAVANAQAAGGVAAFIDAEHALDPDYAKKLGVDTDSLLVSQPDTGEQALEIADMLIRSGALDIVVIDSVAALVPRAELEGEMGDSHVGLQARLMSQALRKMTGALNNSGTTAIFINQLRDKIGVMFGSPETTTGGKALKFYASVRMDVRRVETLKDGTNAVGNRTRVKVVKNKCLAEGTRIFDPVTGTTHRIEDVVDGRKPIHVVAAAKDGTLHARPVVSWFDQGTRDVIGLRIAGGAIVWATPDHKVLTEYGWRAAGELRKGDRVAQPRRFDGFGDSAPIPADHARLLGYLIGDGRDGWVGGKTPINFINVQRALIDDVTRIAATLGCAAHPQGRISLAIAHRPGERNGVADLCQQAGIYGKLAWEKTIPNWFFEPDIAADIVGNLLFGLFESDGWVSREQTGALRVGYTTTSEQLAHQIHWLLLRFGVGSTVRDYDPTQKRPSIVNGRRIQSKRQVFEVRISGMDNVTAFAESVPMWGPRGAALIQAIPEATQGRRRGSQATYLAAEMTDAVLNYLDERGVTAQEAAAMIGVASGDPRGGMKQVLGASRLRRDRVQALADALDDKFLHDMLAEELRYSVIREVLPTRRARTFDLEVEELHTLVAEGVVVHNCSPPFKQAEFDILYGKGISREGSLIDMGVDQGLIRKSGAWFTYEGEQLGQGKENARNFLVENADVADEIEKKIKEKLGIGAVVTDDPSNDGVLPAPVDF
# Genome polyprotein = Genome polyprotein (dengue virus type 2, UniProt P29990); assay: flavivirus cap methylation enzyme inhibition – biochemical, confirmation dose response, primary screen (AID 588689); assay type: functional
# Genome polyprotein, sequence (P29990 2492-3391 limits assumed): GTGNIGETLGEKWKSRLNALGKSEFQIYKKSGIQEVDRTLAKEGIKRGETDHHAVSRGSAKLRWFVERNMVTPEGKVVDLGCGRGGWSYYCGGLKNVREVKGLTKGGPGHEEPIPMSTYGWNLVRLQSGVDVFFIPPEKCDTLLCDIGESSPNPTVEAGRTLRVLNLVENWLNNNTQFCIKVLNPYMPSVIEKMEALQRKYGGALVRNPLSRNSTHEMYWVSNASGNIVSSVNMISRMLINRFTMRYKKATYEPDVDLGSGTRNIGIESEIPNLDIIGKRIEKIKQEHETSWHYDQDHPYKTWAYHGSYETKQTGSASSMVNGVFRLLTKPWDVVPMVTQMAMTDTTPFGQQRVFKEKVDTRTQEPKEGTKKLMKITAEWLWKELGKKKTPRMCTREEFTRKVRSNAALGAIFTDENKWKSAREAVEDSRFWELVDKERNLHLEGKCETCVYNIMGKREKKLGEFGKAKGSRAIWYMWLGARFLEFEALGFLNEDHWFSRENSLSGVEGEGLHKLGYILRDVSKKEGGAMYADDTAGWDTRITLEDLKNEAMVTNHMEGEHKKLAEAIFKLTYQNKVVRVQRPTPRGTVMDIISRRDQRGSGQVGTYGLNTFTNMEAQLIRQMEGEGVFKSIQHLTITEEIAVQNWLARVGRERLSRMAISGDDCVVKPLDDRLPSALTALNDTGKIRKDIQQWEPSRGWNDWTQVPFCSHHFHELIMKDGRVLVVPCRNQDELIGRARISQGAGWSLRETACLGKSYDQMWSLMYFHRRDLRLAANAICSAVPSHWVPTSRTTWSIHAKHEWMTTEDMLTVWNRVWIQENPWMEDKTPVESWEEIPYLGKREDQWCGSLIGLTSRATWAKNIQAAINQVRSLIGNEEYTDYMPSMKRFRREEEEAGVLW
# [6] = molecular target: T5, Methionyl-tRNA synthetase, putative (Trypanosoma brucei brucei, UniProt Q38C91); assay type: functional, Trypanosoma brucei brucei strain 927/4 GUTat10.1
# T5 sequence (Q38C91 whole entry): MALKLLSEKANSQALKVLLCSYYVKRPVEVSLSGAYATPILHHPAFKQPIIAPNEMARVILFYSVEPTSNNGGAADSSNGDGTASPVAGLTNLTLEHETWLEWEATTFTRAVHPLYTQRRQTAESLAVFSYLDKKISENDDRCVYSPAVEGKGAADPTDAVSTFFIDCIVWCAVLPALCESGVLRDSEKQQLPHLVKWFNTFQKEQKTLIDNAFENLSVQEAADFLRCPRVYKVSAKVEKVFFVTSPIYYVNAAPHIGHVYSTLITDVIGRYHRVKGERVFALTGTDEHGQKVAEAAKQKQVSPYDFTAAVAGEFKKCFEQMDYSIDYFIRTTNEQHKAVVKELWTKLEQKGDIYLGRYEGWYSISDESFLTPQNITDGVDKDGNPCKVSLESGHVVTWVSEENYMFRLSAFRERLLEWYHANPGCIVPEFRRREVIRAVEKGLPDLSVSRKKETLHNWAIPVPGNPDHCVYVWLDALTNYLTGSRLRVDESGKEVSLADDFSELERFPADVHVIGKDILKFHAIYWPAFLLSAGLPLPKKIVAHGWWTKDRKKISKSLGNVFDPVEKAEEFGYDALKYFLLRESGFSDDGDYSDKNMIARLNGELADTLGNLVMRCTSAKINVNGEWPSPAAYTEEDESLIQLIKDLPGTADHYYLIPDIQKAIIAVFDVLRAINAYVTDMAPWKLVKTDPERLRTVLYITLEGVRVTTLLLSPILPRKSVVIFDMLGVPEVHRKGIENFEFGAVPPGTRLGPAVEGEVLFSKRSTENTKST
# [7] = Counterscreen for inhibitors of Trypanosoma brucei methionyl tRNA synthetase (MetRS): Luminescence-based cell-based high throughput dose response assay to identify compounds that are cytotoxic to Jurkat human T lymphocyte cells.; assay type: functional
# [8] = molecular target: T5, Methionyl-tRNA synthetase, putative; assay type: functional, Trypanosoma brucei brucei strain 927/4 GUTat10.1; remark: listed apart in the source
# [9] = Late stage counterscreen for inhibitors of Trypanosoma brucei methionyl tRNA synthetase (MetRS): Luminescence-based cell-based high throughput dose response assay to identify compounds that are cytotoxic to Jurkat human T lymphocyte cells.; assay type: functional
# [10] = molecular target: Bifunctional protein GlmU (Mycobacterium tuberculosis, UniProt P9WMN3); assay: Inhibitors of Mycobacterial Glucosamine-1-phosphate acetyl transferase (GlmU). Secondary screen.; parameters: species or system Mycobacterium tuberculosis H37Rv
# Bifunctional protein GlmU, sequence (P9WMN3 whole entry): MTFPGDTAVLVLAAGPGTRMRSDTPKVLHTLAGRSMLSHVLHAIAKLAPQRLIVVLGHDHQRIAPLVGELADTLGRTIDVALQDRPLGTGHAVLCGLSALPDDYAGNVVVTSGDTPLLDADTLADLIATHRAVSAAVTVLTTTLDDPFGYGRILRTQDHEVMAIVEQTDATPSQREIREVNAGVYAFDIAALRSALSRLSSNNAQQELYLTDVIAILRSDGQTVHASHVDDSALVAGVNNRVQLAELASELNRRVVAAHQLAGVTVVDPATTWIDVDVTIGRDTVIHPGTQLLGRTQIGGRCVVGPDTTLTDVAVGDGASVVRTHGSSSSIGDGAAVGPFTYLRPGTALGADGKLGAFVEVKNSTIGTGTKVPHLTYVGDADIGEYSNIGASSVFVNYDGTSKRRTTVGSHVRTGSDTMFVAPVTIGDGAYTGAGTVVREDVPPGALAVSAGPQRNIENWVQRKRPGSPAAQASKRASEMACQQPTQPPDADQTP
# [11] = Trypanosoma cruzi growth suppression in host cells – NIH3T3 host cells, beta-gal luminescence, confirmation (AID 2044); assay type: functional, cell-based;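 further: intracellular parasites grown in NIH/3T3 mouse fibroblasts as host cells; luminescent beta-galactosidase reporter signal from transgenic T. cruzi replicating inside host cells; inhibitors lower the luminescence signal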
# [12] = NIH3T3 cell viability loss – ATP luminescence, mouse fibroblasts, counter-screen, dose response (AID 2010); assay type: functional, cell-based;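 further: cells exposed to compound for about 90 hours before reading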
# [13] = molecular target: E3 ubiquitin-protein ligase Mdm2 (Homo sapiens, UniProt Q00987); assay: MDM2-luc reporter signal enhancers, multi-concentration potency testing, MDM2 ubiquitin-protein ligase inhibitor program, whole-cell format, luminescence detection, 384-well microplate (AID 1394); assay type: functional;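 further: MDM2 E3 inhibitors raise luminescence so EC50 is for signal enhancement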
# E3 ubiquitin-protein ligase Mdm2, sequence (Q00987 whole entry): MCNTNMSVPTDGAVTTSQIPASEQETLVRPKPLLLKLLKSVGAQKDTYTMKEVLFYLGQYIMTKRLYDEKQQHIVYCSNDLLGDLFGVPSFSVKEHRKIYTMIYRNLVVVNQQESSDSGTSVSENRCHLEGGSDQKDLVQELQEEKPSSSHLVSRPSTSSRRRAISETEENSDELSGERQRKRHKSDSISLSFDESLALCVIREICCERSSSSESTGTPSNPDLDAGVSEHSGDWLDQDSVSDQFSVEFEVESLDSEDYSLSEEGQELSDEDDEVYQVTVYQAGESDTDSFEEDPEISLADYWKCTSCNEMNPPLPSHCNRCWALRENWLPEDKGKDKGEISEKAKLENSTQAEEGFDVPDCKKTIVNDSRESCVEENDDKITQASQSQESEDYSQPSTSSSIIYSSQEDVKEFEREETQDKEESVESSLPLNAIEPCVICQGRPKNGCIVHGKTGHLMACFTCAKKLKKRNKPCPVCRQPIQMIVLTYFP
structure (smiles),measurement,setting,value
Cc1cc(C)c(C(=O)Nc2ccc(Br)c(C(F)(F)F)c2)c(C)c1,EC50,[1],2.41 µM (active)
same,CC50,Vero,47.4 µM (active)
same,EC50,Streptokinase A,3.29 µM (active)
same,EC50,Streptococcus,3.73 µM (active)
O=C1C(Cl)=C(N2CCOCC2)C(=O)N1c1cccc(Cl)c1,IC50,[2],> 10 µM (inconclusive)
same,IC50,Bcl-2-related protein A1 [3],6.37 µM (active)
same,IC50,Bcl-2-related protein A1 [4],8.47 µM (active)
same,AC50,[5],4.14 µM (active)
same,EC50,Protein RecA,1.46 µM (active)
same,IC50,Genome polyprotein,13.6 µM (active)
O=C(NCc1nc2ccccc2[nH]1)C1=C[C@@H](c2ccc(Br)cc2)C[C@@H](OCc2ccc(CO)cc2)O1,IC50,[6],1.33 µM (active)
same,IC50,[7],33.7 µM (inactive)
same,IC50,[8],0.498 µM (active)
same,IC50,[9],66.6 µM (inactive)
O=C1C(Cl)=C(Nc2ccccc2O)C(=O)N1CCc1ccccc1,IC50,[10],85.3 µM (active)
Cc1ccccc1OCCNc1cc(N2CCN(CCO)CC2)ccc1[N+](=O)[O-],CC50,Vero,19.4 µM (active)
COc1cccc(CNC(=O)CCC2CCCN(C/C=C/c3ccccc3OC)C2)c1 (stereo not given),EC50,[11],< 0.1 µM (active)
same,EC50,[12],> 60 µM (not active)
same,EC50,cells,0.05 µM (active)
OC(c1nnc(-c2ccccc2)o1)c1cccs1 (stereo not given),EC50,[13],441 µM (not active)
